Values after ≈ are worked out from the molar mass of the structure shown. Where two headings read alike, the source gives them in different places.
How the values were obtained:
Assay type in all cases: cell-based
[1] = tested on: Staphylococcus aureus 100 (ATCC 29213); assay: MIC by broth microdilution, SA 100
Method in brief: (§1)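 Mueller-Hinton broth served as medium for CLSI broth microdilution MIC determination. Serial dilutions were performed robotically.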

[2] = tested on: Staphylococcus aureus 757 (MRSA); assay: MIC by broth microdilution, SA 757; details: read-out: MIC SA 757
Method in brief: as §1

[3] = tested on: Staphylococcus aureus 2012 (VISA); assay: MIC by broth microdilution, SA 2012; details: class symbols
Method in brief: as §1

[4] = tested on: Staphylococcus epidermidis 835; assay: MIC by broth microdilution, SE 835
Method in brief: as §1

[5] = tested on: Staphylococcus epidermidis 831 (MRSE); assay: MIC by broth microdilution, SE 831; details: read-out: MIC SE 831
Method in brief: as §1

[6] = tested on: Enterococcus faecalis 101 (ATCC 29212); assay: MIC by broth microdilution, EFc 101; details: class symbols
Method in brief: as §1

[7] = tested on: Enterococcus faecalis 848 (VRE, Van A); assay: MIC by broth microdilution, EFc 848; details: class symbols
Method in brief: as §1

Enterococcus faecium 800 = assay: MIC by broth microdilution, EFcm 800
Method in brief: as §1

[8] = tested on: Enterococcus faecium 752 (VRE, Van A); assay: MIC by broth microdilution, EFcm 752; details: class symbols
Method in brief: as §1

[9] = tested on: Streptococcus pneumoniae 1195 (ATCC 49619); assay: MIC by broth microdilution, SPNE 1195
Method in brief: as §1

[10] = tested on: Streptococcus pyogenes 712; assay: MIC by broth microdilution, SPY 712
Method in brief: as §1

[11] = Staphylococcus aureus, ATCC29213, read-out: MIC SA 100
[12] = Staphylococcus aureus, VISA, read-out: MIC SA 2012, Staphylococcus aureus 2012 (VISA)
[13] = Staphylococcus epidermidis, 835, read-out: MIC SE 835
[14] = Staphylococcus epidermidis, MRSE
[15] = Enterococcus faecalis, ATCC29212, read-out: MIC E FC 101, Enterococcus faecalis 101 (ATCC 29212)
[16] = Enterococcus faecalis, VRE, read-out: MIC E FC 848, Enterococcus faecalis 848 (VRE, Van A)
[17] = Enterococcus faecium, 800, read-out: MIC E FCM 800
[18] = Enterococcus faecium, VRE, read-out: MIC E FCM 752, Enterococcus faecium 752 (VRE, Van A)
[19] = Streptococcus pneumoniae, ATCC49619, read-out: MIC S PNE 1195
[20] = Streptococcus pyogenes, 712, read-out: MIC S PYO 712
[21] = ATCC29213, Staphylococcus aureus 100 (ATCC 29213), class symbols, read-out: MIC SA 100
[22] = Staphylococcus aureus 757 (MRSA), class symbols
[23] = Staphylococcus aureus 2012 (VISA), read-out: MIC SA 2012
[24] = Staphylococcus epidermidis 835, class symbols, read-out: MIC SE 835
[25] = Staphylococcus epidermidis 831 (MRSE), class symbols
[26] = ATCC29212, Enterococcus faecalis 101 (ATCC 29212), read-out: MIC E FC 101
[27] = Enterococcus faecalis 848 (VRE, Van A), read-out: MIC E FC 848
[28] = Enterococcus faecium 800, class symbols, read-out: MIC E FCM 800
[29] = Enterococcus faecium 752 (VRE, Van A), read-out: MIC E FCM 752
[30] = ATCC49619, Streptococcus pneumoniae 1195 (ATCC 49619), class symbols, read-out: MIC S PNE 1195
[31] = Streptococcus pyogenes 712, class symbols, read-out: MIC S PYO 712

SMILES | MIC [1, 11] [µg/mL] | MIC ([2]; Staphylococcus aureus, MRSA) [µg/mL] | MIC [3, 12] [µg/mL] | MIC [4, 13] [µg/mL] | MIC [5, 14] [µg/mL] | MIC [6, 15] [µg/mL] | MIC [7, 16] [µg/mL] | MIC (Enterococcus faecium 800; [17]) [µg/mL] | MIC [8, 18] [µg/mL] | MIC [9, 19] [µg/mL] | MIC [10, 20] [µg/mL] | MIC [1, 21] [µg/mL] | MIC [2, 22] [µg/mL] | MIC [3, 23] [µg/mL] | MIC [4, 24] [µg/mL] | MIC [5, 25] [µg/mL] | MIC [6, 26] [µg/mL] | MIC [7, 27] [µg/mL] | MIC (Enterococcus faecium 800; [28]) [µg/mL] | MIC [8, 29] [µg/mL] | further results
CCOc1ccc(NC(=O)Oc2cc(O)c3c(c2)[C@@H](C(=O)NC2C4CC5CC(C4)CC2C5)NC(=O)[C@H]2NC(=O)[C@H](NC(=O)[C@@H]4NC(=O)[C@H](CC(N)=O)NC(=O)[C@H](NC(=O)[C@@H](CC(C)C)NC)[C@H](O)c5ccc(c(Cl)c5)Oc5cc4cc(c5O[C@@H]4O[C@H](CO)[C@@H](O)[C@H](O)[C@H]4O[C@H]4C[C@](C)(N)[C@H](O)[C@H](C)O4)Oc4ccc(cc4Cl)[C@H]2O)c2ccc(O)c-3c2)cc1 (some centres unmarked) [Compound 330] | 0.5 to 1 (≈ 0.286 to 0.573 µM) | 0.5 to 1 (≈ 0.286 to 0.573 µM) | 4 to 8 (≈ 2.29 to 4.58 µM) | 1 to 2 (≈ 0.573 to 1.15 µM) | 1 to 2 (≈ 0.573 to 1.15 µM) | 1 to 2 (≈ 0.573 to 1.15 µM) | > 16 | 0.01 to 0.5 (≈ 0.00573 to 0.286 µM) | > 16 | 0.01 to 0.5 (≈ 0.00573 to 0.286 µM) | 0.01 to 0.5 (≈ 0.00573 to 0.286 µM) | – | – | – | – | – | – | – | – | – | –
CCCCCCc1ccc(S(=O)(=O)NCCCCCCNC(=O)Oc2cc(O)c3c(c2)[C@@H](C(=O)O)NC(=O)[C@H]2NC(=O)[C@H](NC(=O)[C@@H]4NC(=O)[C@H](CC(N)=O)NC(=O)[C@H](NC(=O)[C@@H](CC(C)C)NC)[C@H](O)c5ccc(c(Cl)c5)Oc5cc4cc(c5O[C@@H]4O[C@H](CO)[C@@H](O)[C@H](O)[C@H]4O[C@H]4C[C@](C)(N)[C@H](O)[C@H](C)O4)Oc4ccc(cc4Cl)[C@H]2O)c2ccc(O)c-3c2)cc1 (atropisomer, axis not shown) [Compound 352] | 0.01 to 0.5 (≈ 0.00551 to 0.275 µM) | 0.01 to 0.5 (≈ 0.00551 to 0.275 µM) | 0.01 to 0.5 (≈ 0.00551 to 0.275 µM) | 0.01 to 0.5 (≈ 0.00551 to 0.275 µM) | 0.01 to 0.5 (≈ 0.00551 to 0.275 µM) | 0.01 to 0.5 (≈ 0.00551 to 0.275 µM) | 2 to 4 (≈ 1.1 to 2.2 µM) | 0.01 to 0.5 (≈ 0.00551 to 0.275 µM) | 0.5 to 1 (≈ 0.275 to 0.551 µM) | 0.01 to 0.5 (≈ 0.00551 to 0.275 µM) | 0.01 to 0.5 (≈ 0.00551 to 0.275 µM) | – | – | – | – | – | – | – | – | – | –
CCCCCCc1ccc(S(=O)(=O)NCCCCCCNCc2c(O)cc3c(c2O)-c2cc(ccc2O)[C@H]2NC(=O)[C@@H]4NC(=O)[C@H](CC(N)=O)NC(=O)[C@H](NC(=O)[C@@H](CC(C)C)NC)[C@H](O)c5ccc(c(Cl)c5)Oc5cc4cc(c5O[C@@H]4O[C@H](CO)[C@@H](O)[C@H](O)[C@H]4O[C@H]4C[C@]5(C)NC(=O)O[C@@H]5[C@H](C)O4)Oc4ccc(cc4Cl)[C@@H](O)[C@H](NC2=O)C(=O)N[C@@H]3C(=O)O)cc1 (atropisomer, axis not shown) [Compound 305] | – | – | – | – | – | – | – | – | – | – | – | 0.01 to 0.5 (≈ 0.00547 to 0.274 µM) | 0.01 to 0.5 (≈ 0.00547 to 0.274 µM) | 0.01 to 0.5 (≈ 0.00547 to 0.274 µM) | 0.01 to 0.5 (≈ 0.00547 to 0.274 µM) | 0.01 to 0.5 (≈ 0.00547 to 0.274 µM) | 0.01 to 0.5 (≈ 0.00547 to 0.274 µM) | 8 to 16 (≈ 4.38 to 8.75 µM) | 0.01 to 0.5 (≈ 0.00547 to 0.274 µM) | 1 to 2 (≈ 0.547 to 1.09 µM) | MIC [9, 30]: 0.01 to 0.5 µg/mL (≈ 0.00547 to 0.274 µM); MIC [10, 31]: 0.01 to 0.5 µg/mL (≈ 0.00547 to 0.274 µM)
CCCCCCc1ccc(S(=O)(=O)NCCCCCCNCc2c(O)cc3c(c2O)-c2cc(ccc2O)[C@H]2NC(=O)[C@@H]4NC(=O)[C@H](CC(N)=O)NC(=O)[C@H](NC(=O)[C@@H](CC(C)C)NC)[C@H](O)c5ccc(c(Cl)c5)Oc5cc4cc(c5O[C@@H]4O[C@H](CO)[C@@H](O)[C@H](O)[C@H]4O[C@H]4C[C@](C)(NC(=O)CCCCCN)[C@H](O)[C@H](C)O4)Oc4ccc(cc4Cl)[C@@H](O)[C@H](NC2=O)C(=O)N[C@@H]3C(=O)O)cc1 (atropisomer, axis not shown) [Compound 344] | – | – | – | – | – | – | – | – | – | – | – | 0.01 to 0.5 (≈ 0.00522 to 0.261 µM) | 0.01 to 0.5 (≈ 0.00522 to 0.261 µM) | 0.01 to 0.5 (≈ 0.00522 to 0.261 µM) | 0.01 to 0.5 (≈ 0.00522 to 0.261 µM) | 0.01 to 0.5 (≈ 0.00522 to 0.261 µM) | 0.01 to 0.5 (≈ 0.00522 to 0.261 µM) | 4 to 8 (≈ 2.09 to 4.18 µM) | 0.01 to 0.5 (≈ 0.00522 to 0.261 µM) | 1 to 2 (≈ 0.522 to 1.04 µM) | MIC [9, 30]: 0.01 to 0.5 µg/mL (≈ 0.00522 to 0.261 µM); MIC [10, 31]: 0.01 to 0.5 µg/mL (≈ 0.00522 to 0.261 µM)

— patent publication US20110015119A1, “NOVEL SEMI-SYNTHETIC GLYCOPEPTIDES AS ANTIBACTERIAL AGENTS” (LEAD THERAPEUTICS, INC., priority 2009, published 2011)
